{"source": "ChEMBL document CHEMBL1135283", "about": "“Carbonic anhydrase activators: human isozyme II is strongly activated by oligopeptides incorporating the carboxyterminal sequence of the bicarbonate anion exchanger AE1” (Bioorg Med Chem Lett, 2002)", "key": {"[1]": {"target": "Carbonic anhydrase 2 (Homo sapiens) (UniProt P00918)", "experiment": "Tested in vitro for activation of Human cloned isozyme carbonic anhydrase II (hCA II)"}, "[2]": {"target": "Carbonic anhydrase 1 (Homo sapiens) (UniProt P00915)", "sequence (P00915 2-261 limits assumed)": "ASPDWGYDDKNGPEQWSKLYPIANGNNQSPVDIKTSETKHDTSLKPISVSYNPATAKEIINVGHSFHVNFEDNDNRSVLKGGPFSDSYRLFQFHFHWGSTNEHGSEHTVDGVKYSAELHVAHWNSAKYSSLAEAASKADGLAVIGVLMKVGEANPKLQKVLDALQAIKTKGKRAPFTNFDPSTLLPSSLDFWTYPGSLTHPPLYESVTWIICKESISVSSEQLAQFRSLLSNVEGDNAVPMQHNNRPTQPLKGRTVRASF", "experiment": "Tested in vitro for activation of Human cloned isozyme carbonic anhydrase I (hCA I)"}, "[3]": {"target": "T1, Carbonic anhydrase 4 (Bos taurus) (UniProt Q95323)", "T1 sequence (whole entry)": "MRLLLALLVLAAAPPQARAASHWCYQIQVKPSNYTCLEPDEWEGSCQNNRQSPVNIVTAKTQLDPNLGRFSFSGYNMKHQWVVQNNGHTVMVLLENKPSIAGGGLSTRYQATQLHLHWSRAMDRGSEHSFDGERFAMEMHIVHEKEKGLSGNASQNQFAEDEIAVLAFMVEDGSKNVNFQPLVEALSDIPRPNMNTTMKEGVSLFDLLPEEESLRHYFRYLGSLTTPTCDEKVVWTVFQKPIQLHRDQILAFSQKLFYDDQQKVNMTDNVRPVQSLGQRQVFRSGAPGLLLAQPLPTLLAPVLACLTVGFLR", "experiment": "Tested in vitro for activation of carbonic anhydrase IV (bCA IV), purified from bovine lung microsomes", "conditions": "Microsome"}}, "note": "Where a SMILES comes first, the peptide text is derived from it. The star is where a group is joined. Boc = CC(C)(C)OC(=O)*", "data": [{"compound": "CC(C)(C)OC(=O)N[C@@H](CC(=O)O)C(=O)O", "values": [{"measurement": "KA", "setting": "[1]", "value": "> 200", "unit": "µM"}, {"measurement": "KA", "setting": "[2]", "value": "> 200", "unit": "µM"}, {"measurement": "KA", "setting": "[3]", "value": "> 200", "unit": "µM"}]}, {"compound": "C[C@H](N)C(=O)O", "values": [{"measurement": "KA", "setting": "[1]", "value": 150, "unit": "µM"}, {"measurement": "KA", "setting": "[2]", "value": 54, "unit": "µM"}, {"measurement": "KA", "setting": "[3]", "value": 66, "unit": "µM"}]}, {"compound": "N[C@@H](CC(=O)O)C(=O)O", "values": [{"measurement": "KA", "setting": "[1]", "value": 130, "unit": "µM"}, {"measurement": "KA", "setting": "[2]", "value": 48, "unit": "µM"}, {"measurement": "KA", "setting": "[3]", "value": 60, "unit": "µM"}]}, {"compound": "CC(=O)N[C@@H](CC(=O)O)C(=O)N[C@@H](C)C(=O)O", "note": "(Ac-Asp-Ala-OH)", "values": [{"measurement": "KA", "setting": "[1]", "value": "> 200", "unit": "µM"}, {"measurement": "KA", "setting": "[2]", "value": "> 200", "unit": "µM"}, {"measurement": "KA", "setting": "[3]", "value": "> 200", "unit": "µM"}]}, {"compound": "CC(=O)N[C@@H](CC(=O)O)C(=O)N[C@@H](CC(=O)O)C(=O)O", "note": "(Ac-Asp-Asp-OH)", "values": [{"measurement": "KA", "setting": "[1]", "value": "> 200", "unit": "µM"}, {"measurement": "KA", "setting": "[2]", "value": "> 200", "unit": "µM"}, {"measurement": "KA", "setting": "[3]", "value": "> 200", "unit": "µM"}]}, {"compound": "CC(C)(C)OC(=O)N[C@@H](CC(=O)O)C(=O)N[C@@H](CC(=O)O)C(=O)N[C@@H](CC(=O)O)C(=O)O", "note": "(Boc-Asp-Asp-Asp-OH)", "values": [{"measurement": "KA", "setting": "[1]", "value": 145, "unit": "µM"}, {"measurement": "KA", "setting": "[2]", "value": "> 200", "unit": "µM"}, {"measurement": "KA", "setting": "[3]", "value": "> 200", "unit": "µM"}]}, {"compound": "CC(C)(C)OC(=O)N[C@@H](CC(=O)O)C(=O)N[C@@H](CC(=O)O)C(=O)O", "note": "(Boc-Asp-Asp-OH)", "values": [{"measurement": "KA", "setting": "[1]", "value": "> 200", "unit": "µM"}, {"measurement": "KA", "setting": "[2]", "value": "> 200", "unit": "µM"}, {"measurement": "KA", "setting": "[3]", "value": "> 200", "unit": "µM"}]}, {"compound": "C[C@H](NC(=O)[C@H](CC(=O)O)NC(=O)OC(C)(C)C)C(=O)N[C@@H](CC(=O)O)C(=O)N[C@@H](CC(=O)O)C(=O)O", "note": "(Boc-DADD-OH)", "values": [{"measurement": "KA", "setting": "[1]", "value": 131, "unit": "µM"}, {"measurement": "KA", "setting": "[2]", "value": "> 200", "unit": "µM"}, {"measurement": "KA", "setting": "[3]", "value": "> 200", "unit": "µM"}]}, {"compound": "CC(C)(C)OC(=O)N[C@@H](CC(=O)O)C(=O)N[C@@H](CC(=O)O)C(=O)N[C@@H](CC(=O)O)C(=O)N[C@@H](CC(=O)O)C(=O)O", "note": "(Boc-DDDD-OH)", "values": [{"measurement": "KA", "setting": "[1]", "value": 124, "unit": "µM"}, {"measurement": "KA", "setting": "[2]", "value": "> 200", "unit": "µM"}, {"measurement": "KA", "setting": "[3]", "value": "> 200", "unit": "µM"}]}, {"compound": "C[C@H](N)C(=O)N[C@@H](C)C(=O)O", "note": "(H-Ala-Ala-OH)", "values": [{"measurement": "KA", "setting": "[1]", "value": 110, "unit": "µM"}, {"measurement": "KA", "setting": "[2]", "value": 50, "unit": "µM"}, {"measurement": "KA", "setting": "[3]", "value": 62, "unit": "µM"}]}, {"compound": "C[C@H](NC(=O)[C@@H](N)CC(=O)O)C(=O)N[C@@H](CC(=O)O)C(=O)O", "note": "(H-Asp-Ala-Asp-OH)", "values": [{"measurement": "KA", "setting": "[1]", "value": 10, "unit": "µM"}, {"measurement": "KA", "setting": "[2]", "value": 38, "unit": "µM"}, {"measurement": "KA", "setting": "[3]", "value": 48, "unit": "µM"}]}, {"compound": "C[C@H](NC(=O)[C@@H](N)CC(=O)O)C(=O)O", "note": "(H-Asp-Ala-OH)", "values": [{"measurement": "KA", "setting": "[1]", "value": 33, "unit": "µM"}, {"measurement": "KA", "setting": "[2]", "value": 40, "unit": "µM"}, {"measurement": "KA", "setting": "[3]", "value": 55, "unit": "µM"}]}, {"compound": "N[C@@H](CC(=O)O)C(=O)N[C@@H](CC(=O)O)C(=O)N[C@@H](CC(=O)O)C(=O)O", "note": "(H-Asp-Asp-Asp-OH)", "values": [{"measurement": "KA", "setting": "[1]", "value": 11, "unit": "µM"}, {"measurement": "KA", "setting": "[2]", "value": 40, "unit": "µM"}, {"measurement": "KA", "setting": "[3]", "value": 45, "unit": "µM"}]}, {"compound": "N[C@@H](CC(=O)O)C(=O)N[C@@H](CC(=O)O)C(=O)O", "note": "(H-Asp-Asp-OH)", "values": [{"measurement": "KA", "setting": "[1]", "value": 21, "unit": "µM"}, {"measurement": "KA", "setting": "[2]", "value": 39, "unit": "µM"}, {"measurement": "KA", "setting": "[3]", "value": 51, "unit": "µM"}]}, {"compound": "C[C@H](NC(=O)[C@@H](N)CC(=O)O)C(=O)N[C@@H](CC(=O)O)C(=O)N[C@@H](CC(=O)O)C(=O)O", "note": "(H-DADD-OH)", "values": [{"measurement": "KA", "setting": "[1]", "value": 0.2, "unit": "µM"}, {"measurement": "KA", "setting": "[2]", "value": 36, "unit": "µM"}, {"measurement": "KA", "setting": "[3]", "value": 46, "unit": "µM"}]}, {"compound": "N[C@@H](CC(=O)O)C(=O)N[C@@H](CC(=O)O)C(=O)N[C@@H](CC(=O)O)C(=O)N[C@@H](CC(=O)O)C(=O)O", "note": "(H-DDDD-OH)", "values": [{"measurement": "KA", "setting": "[1]", "value": 0.1, "unit": "µM"}, {"measurement": "KA", "setting": "[2]", "value": 35, "unit": "µM"}, {"measurement": "KA", "setting": "[3]", "value": 43, "unit": "µM"}]}]}
